Assay [1] deals with isolated working hearts from male Wistar rats. Kind of assay: Isolated working hearts from normal male Wistar rats: ventricular function, zero-flow ischaemia and re-perfusion. More on the design: species or system rat. On the procedure:
Test Systems: Male Wistar rats (Charles River; St Aubin lès Elbeuf, France), with a body weight ranging from 260 to 280 g were housed on a 12h/12h light-dark cycle with access to water and standard rat chow ad libitum. An acclimatisation period of at least one week was allowed prior to experiment.
(§1) Perfusion of isolated hearts: Rats were anaesthetized using thiopental sodium (50 mg/kg body weight intraperitoneally). Hearts from normoglycaemic and one-month STZ-induced diabetic rats, were quickly removed and immersed in ice-cold buffer to produce an immediate cessation of contractility. The aorta was dissected free and then mounted onto a cannula attached to a perfusion apparatus. Retrograde perfusion of the heart was started for 10 min by the Langendorff method and then switched to perfusion using the working-heart technique. […] The perfusate was not recirculated. Preload was held at a pressure of 15 cm H2O and afterload, as well as coronary perfusion pressure, were kept constant at 80 cm H2O.
(§2) Aortic and coronary flows ([…]) were measured by timed collection. Cardiac output ([…]) was derived from the sum of the aortic and coronary flows. Stroke volume (ml/beat) was derived by dividing cardiac output by heart rate.
(§3) Induction of global ischaemia and re-perfusion: Total ischaemia was initiated by clamping the left atrium and the aortic perfusion tubes and reducing coronary flow to zero for 30 minutes. The hearts were then re-perfused at 37° C. in working heart mode and recovery of ventricular function was followed for 30 minutes.
(§4) Data Handling & Analysis: The data are presented as the mean±SEM. Statistical significance of differences was determined using Student's t-test. Differences with p<0.05 were considered to be statistically significant.

For assay [2], the system named is isolated working hearts from STZ-diabetic rats. Kind of assay: Isolated working hearts from STZ-diabetic male Wistar rats: ventricular function, zero-flow ischaemia and re-perfusion. More on the design: species or system rat. As for the experimental part: A solution of streptozotocin (STZ commercially available) was prepared in citrate buffer (40 mg/ml).
Induction of experimental diabetes: Male Wistar rats weighing between 300 and 320 g were fasted overnight and made diabetic by a single intravenous injection of STZ, 40 mg/kg body weight. The development of diabetes and its persistence were monitored by serial quantitative measurements of glucose in the urine with reagent strips. On the day of the experiment, the severity of diabetes was assessed by measuring glucose concentrations from blood samples collected at the time of heart excision. Only rats with plasma glucose levels exceeding 20 mM were considered diabetic and included in these experiments.
as §1, §2, §3, §4

Where [3] appears, read: baseline ventricular function, normal male Wistar rats, 1 μM in the perfusate pre-ischaemia, mean±SEM.
Where [4] appears, read: baseline ventricular function, STZ-diabetic male Wistar rats, 1 μM in the perfusate pre-ischaemia, n = 6, mean±SEM.

In the case of `CN(CCOc1ccc(CC2SC(=O)NC2=O)cc1)c1ccccn1` (stereo not drawn) [Compound (I), 5-[4-[2-(N-methyl-N-(2-pyridyl)amino)ethoxy]benzyl]thiazolidine-2,4-dione], in assay [1] (setting [3]), the “Aortic Flow” value came out at 34.0 ± 0.7 mL/min, the “Cardiac Output” value stood at 51 ± 1 mL/min, the “Coronary Flow” value stood at 16.6 ± 0.6 mL/min and the “Heart Rate” value was 317 ± 15 beats/min. In addition, the “Peak Systolic Pressure” value in assay [1] (setting [3]) came to 73 ± 1 mmHg. Besides, the “protective properties in hearts subjected to zero-flow ischaemia in vitro” value in assay [1] (normal rat hearts) is listed as “protective properties of rapid onset”. Further, in assay [2] (setting [4]), the “Aortic Flow” value turned out to be 42.3 ± 1.5 mL/min, the “Cardiac Output” value was 54.4 ± 1.7 mL/min, the “Coronary Flow” value worked out at 12.1 ± 0.4 mL/min and the “Heart Rate” value amounted to 225 ± 14 beats/min. In addition, in assay [2] (setting [4]), the “Peak Systolic Pressure” value was determined as 76 ± 2 mmHg. The “protective properties in hearts subjected to zero-flow ischaemia in vitro” value in assay [2] (diabetic rat hearts) is recorded as “protective properties of rapid onset”.

(Values after patent US20040254229A1, “Use of glucose uptake enhancer for reducing apoptosis” (SmithKline Beecham p.l.c. and SmithKline Beecham …, priority 1998, published 2004).)
